From patent US12139492B2 (Endotarget Inc., priority 2021, dated 2024)

Key:
BTK = BTK (Homo sapiens, UniProt Q06187); experiment: Degradation of BTK protein in Namalwa cells (Western blot; DC50, Dmax); settings: for DC50: read-out: DC50 (BTK degradation), concentration giving 50% reduction of BTK expression level, cell line not given; for Dmax: read-out: Dmax (BTK degradation); for degradation of BTK protein: Namalwa B lymphocyte cells, various concentrations, 24 hours, Western blot
Mino cells = experiment: Antiproliferative effect, MTS cell viability assay, Mino cells; assay type: cell-based; settings: Homo sapiens, MINO, Mino mantle cell lymphoma cells; read-out: IC50 (anti-proliferation) Mino cells
Method in brief: (§1)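 MTS read-out, A490 of formazan from metabolically active cells; compound 0–10 μM (0, 0.001, 0.01, 0.1, 1, 10 μM), 72 h exposure.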

JeKo-1 cells = experiment: Antiproliferative effect, MTS cell viability assay, JeKo-1 cells; assay type: cell-based; settings: Homo sapiens; JeKo-1 mantle cell lymphoma cells; read-out: IC50 (anti-proliferation) JeKO-1 cells
Method in brief: as §1

Sequence of BTK (Q06187 whole entry): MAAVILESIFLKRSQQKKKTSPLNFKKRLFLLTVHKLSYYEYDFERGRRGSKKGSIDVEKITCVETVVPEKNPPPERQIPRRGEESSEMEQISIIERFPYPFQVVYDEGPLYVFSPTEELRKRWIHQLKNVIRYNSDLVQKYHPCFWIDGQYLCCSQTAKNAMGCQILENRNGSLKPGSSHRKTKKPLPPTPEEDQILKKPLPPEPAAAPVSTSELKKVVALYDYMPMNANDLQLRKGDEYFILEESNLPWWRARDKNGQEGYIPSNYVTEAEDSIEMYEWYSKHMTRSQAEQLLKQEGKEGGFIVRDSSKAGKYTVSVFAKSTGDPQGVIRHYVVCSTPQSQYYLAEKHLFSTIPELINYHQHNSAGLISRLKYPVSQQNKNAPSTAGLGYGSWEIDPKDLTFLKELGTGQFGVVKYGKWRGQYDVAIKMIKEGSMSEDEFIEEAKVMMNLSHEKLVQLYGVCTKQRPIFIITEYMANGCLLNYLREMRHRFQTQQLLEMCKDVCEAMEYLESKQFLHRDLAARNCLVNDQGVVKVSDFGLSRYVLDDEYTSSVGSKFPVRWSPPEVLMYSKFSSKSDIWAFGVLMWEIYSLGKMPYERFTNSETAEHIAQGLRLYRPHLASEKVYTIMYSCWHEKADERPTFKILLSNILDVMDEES

Row | Structure (SMILES) | DC50 (BTK) [µM] | Dmax (BTK) [%] | IC50 (Mino cells) [µM] | IC50 (JeKo-1 cells) [µM] | degradation of BTK protein (BTK)
1 | Nc1ncnc2c1c(-c1ccc(Oc3ccccc3)cc1)nn2C1CCN([C@@H]2CCN(CC3CN(c4ccc5c(c4)C(=O)N(C4CCC(=O)NC4=O)C5=O)C3)C2)CC1 (stereo partly drawn) [Compound 425a, 5-(3-(((R)-3-(4-(4-amino-3-(4-phenoxyphenyl)-1H-pyrazolo[3,4-d]pyrimidin-1-yl)piperidin-1-yl)pyrrolidin-1-yl)methyl)azetidin-1-yl)-2-(2,6-dioxopiperidin-3-yl)isoindoline-1,3-dione] | 0.01 to 0.05 | > 90 | 1 to 10 | 1 to 10 | 
2 | Nc1ncnc2c1c(-c1ccc(Oc3ccccc3)cc1)nn2C1CCN([C@H]2CCN(CC3CN(c4ccc5c(c4)C(=O)N(C4CCC(=O)NC4=O)C5=O)C3)C2)CC1 (stereo partly drawn) [Compound 425b, 5-(3-(((S)-3-(4-(4-amino-3-(4-phenoxyphenyl)-1H-pyrazolo[3,4-d]pyrimidin-1-yl)piperidin-1-yl)pyrrolidin-1-yl)methyl)azetidin-1-yl)-2-(2,6-dioxopiperidin-3-yl)isoindoline-1,3-dione] |  | > 90 | 1 to 10 | 1 to 10 | 
3 | Nc1ncnc2c1c(-c1ccc(Oc3ccccc3)cc1)nn2C1CCN(C2CCN(CC3CN(c4ccc5c(c4)CN(C4CCC(=O)NC4=O)C5=O)C3)C2)CC1 (stereo not drawn) [Compound 426, 3-(5-(3-((3-(4-(4-amino-3-(4-phenoxyphenyl)-1H-pyrazolo[3,4-d]pyrimidin-1-yl)piperidin-1-yl)pyrrolidin-1-yl)methyl)azetidin-1-yl)-1-oxoisoindolin-2-yl)piperidine-2,6-dione] | 0.01 to 0.05 | > 90 | < 1 | < 1 | 
4 | Nc1ncnc2c1c(-c1ccc(Oc3ccccc3)cc1)nn2C1CCN(CC2CCN(CC3CN(CC4CN(c5ccc6c(c5)C(=O)N(C5CCC(=O)NC5=O)C6=O)C4)C3)C2)CC1 (stereo not drawn) [Compound 427, 5-(3-((3-((3-((4-(4-amino-3-(4-phenoxyphenyl)-1H-pyrazolo(3,4-d)pyrimidin-1-yl)piperidin-1-yl)methyl)pyrrolidin-1-yl)methyl)azetidin-1-yl)methyl)azetidin-1-yl)-2-(2,6-dioxopiperidin-3-yl)isoindoline-1,3-dione] | > 0.05 | > 90 | 1 to 10 | 1 to 10 | dose-dependent degradation
5 | Nc1ncnc2c1c(-c1ccc(Oc3ccccc3)cc1)nn2C1CCN(C[C@H]2CCN(CC3CN(CC4CN(c5ccc6c(c5)C(=O)N(C5CCC(=O)NC5=O)C6=O)C4)C3)C2)CC1 (stereo partly drawn) [Compound 427a, 5-(3-((3-(((R)-3-((4-(4-amino-3-(4-phenoxyphenyl)-1H-pyrazolo[3,4-d]pyrimidin-1-yl)piperidin-1-yl)methyl)pyrrolidin-1-yl)methyl)azetidin-1-yl)methyl)azetidin-1-yl)-2-(2,6-dioxopiperidin-3-yl)isoindoline-1,3-dione] | > 0.05 | > 90 | 1 to 10 | 1 to 10 | 
6 | Nc1ncnc2c1c(-c1ccc(Oc3ccccc3)cc1)nn2C1CCN(C[C@@H]2CCN(CC3CN(CC4CN(c5ccc6c(c5)C(=O)N(C5CCC(=O)NC5=O)C6=O)C4)C3)C2)CC1 (stereo partly drawn) [Compound 427b, 5-(3-((3-(((S)-3-((4-(4-amino-3-(4-phenoxyphenyl)-1H-pyrazolo[3,4-d]pyrimidin-1-yl)piperidin-1-yl)methyl)pyrrolidin-1-yl)methyl)azetidin-1-yl)methyl)azetidin-1-yl)-2-(2,6-dioxopiperidin-3-yl)isoindoline-1,3-dione] | > 0.05 | > 90 | 1 to 10 | 1 to 10 | 
7 | Nc1ncnc2c1c(-c1ccc(Oc3ccccc3)cc1)nn2C1CCN(CC2CCN(CC3CN(CC4CN(c5ccc6c(c5)CN(C5CCC(=O)NC5=O)C6=O)C4)C3)C2)CC1 (stereo not drawn) [Compound 428, 3-(5-(3-((3-((3-((4-(4-amino-3-(4-phenoxyphenyl)-1H-pyrazolo[3,4-d]pyrimidin-1-yl)piperidin-1-yl)methyl)pyrrolidin-1-yl)methyl)azetidin-1-yl)methyl)azetidin-1-yl)-1-oxoisoindolin-2-yl)piperidine-2,6-dione] | 0.01 to 0.05 | > 90 | 1 to 10 | 1 to 10 | 
8 | Nc1ncnc2c1c(-c1ccc(Oc3ccccc3)cc1)nn2C1CCN(CC2CCN(CC3CN(c4ccc5c(c4)C(=O)N(C4CCC(=O)NC4=O)C5=O)C3)CC2)CC1 (stereo not drawn) [Compound 429, 5-(3-((4-((4-(4-amino-3-(4-phenoxyphenyl)-1H-pyrazolo(3,4-d)pyrimidin-1-yl)piperidin-1-yl)methyl)piperidin-1-yl)methyl)azetidin-1-yl)-2-(2,6-dioxopiperidin-3-yl)isoindoline-1,3-dione] | 0.01 to 0.05 | > 90 | < 1 | 1 to 10 | 
9 | Nc1ncnc2c1c(-c1ccc(Oc3ccccc3)cc1)nn2C1CCN(CC2CCN(CC3CN(c4ccc5c(c4)CN(C4CCC(=O)NC4=O)C5=O)C3)CC2)CC1 (stereo not drawn) [Compound 430, 3-(5-(3-((4-((4-(4-amino-3-(4-phenoxyphenyl)-1H-pyrazolo[3,4-d]pyrimidin-1-yl)piperidin-1-yl)methyl)piperidin-1-yl)methyl)azetidin-1-yl)-1-oxoisoindolin-2-yl)piperidine-2,6-dione] | 0.01 to 0.05 | > 90 | < 1 | < 1 | 
10 | Nc1ncnc2c1c(-c1ccc(Oc3ccccc3)cc1)nn2C1CCN(CC2CCN(CC3CCN(CC4CN(c5ccc6c(c5)C(=O)N(C5CCC(=O)NC5=O)C6=O)C4)CC3)CC2)CC1 (stereo not drawn) [Compound 431, 5-(3-((4-((4-((4-(4-amino-3-(4-phenoxyphenyl)-1H-pyrazolo(3,4-d)pyrimidin-1-yl)piperidin-1-yl)methyl)piperidin-1-yl)methyl)piperidin-1-yl)methyl)azetidin-1-yl)-2-(2,6-dioxopiperidin-3-yl)isoindoline-1,3-dione] | > 0.05 | > 90 | < 1 | < 1 | dose-dependent degradation
11 | Nc1ncnc2c1c(-c1ccc(Oc3ccccc3)cc1)nn2C1CCN(CC2CCN(CC3CCN(CC4CN(c5ccc6c(c5)CN(C5CCC(=O)NC5=O)C6=O)C4)CC3)CC2)CC1 (stereo not drawn) [Compound 432, 3-(5-(3-((4-((4-((4-(4-amino-3-(4-phenoxyphenyl)-1H-pyrazolo[3,4-d]pyrimidin-1-yl)piperidin-1-yl)methyl)piperidin-1-yl)methyl)piperidin-1-yl)methyl)azetidin-1-yl)-1-oxoisindolin-2-yl)piperidine-2,6-dione] | 0.01 to 0.05 | > 90 | < 1 | < 1 | 
12 | Nc1ncnc2c1c(-c1ccc(Oc3ccccc3)cc1)nn2C1CCN(C2CCN(CC3CN(c4ccc5c(c4)C(=O)N(C4CCC(=O)NC4=O)C5=O)C3)CC2)CC1 (stereo not drawn) [Compound 433, 5-(3-((4-(4-amino-3-(4-phenoxyphenyl)-1H-pyrazolo(3,4-d)pyrimidin-1-yl)-(1,4′-bipiperidin)-1′-yl)methyl)azetidin-1-yl)-2-(2,6-dioxopiperidin-3-yl)isoindoline-1,3-dione] | > 0.05 | > 90 | < 1 | 1 to 10 | dose-dependent degradation
13 | Nc1ncnc2c1c(-c1ccc(Oc3ccccc3)cc1)nn2C1CCN(C2CCN(CC3CN(c4ccc5c(c4)CN(C4CCC(=O)NC4=O)C5=O)C3)CC2)CC1 (stereo not drawn) [Compound 434, 3-(5-(3-((4-(4-amino-3-(4-phenoxyphenyl)-1H-pyrazolo[3,4-d]pyrimidin-1-yl)-[1,4′-bipiperidin]-1′-yl)methyl)azetidin-1-yl)-1-oxoisoindolin-2-yl)piperidine-2,6-dione] | 0.01 to 0.05 | > 90 | < 1 | 1 to 10 | 
14 | Nc1ncnc2c1c(-c1ccc(Oc3ccccc3)cc1)nn2C1CCN(C2CCN(CC3CCN(CC4CN(c5ccc6c(c5)C(=O)N(C5CCC(=O)NC5=O)C6=O)C4)CC3)CC2)CC1 (stereo not drawn) [Compound 435, 5-(3-((4-((4-(4-amino-3-(4-phenoxyphenyl)-1H-pyrazolo[3,4-d]pyrimidin-1-yl)-[1,4′-bipiperidin]-1′-yl)methyl)piperidin-1-yl)methyl)azetidin-1-yl)-2-(2,6-dioxopiperidin-3-yl)isoindoline-1,3-dione] | < 0.01 | > 90 | < 1 | 1 to 10 | dose-dependent degradation
15 | Nc1ncnc2c1c(-c1ccc(Oc3ccccc3)cc1)nn2C1CCN(C2CCN(CC3CCN(CC4CN(c5ccc6c(c5)CN(C5CCC(=O)NC5=O)C6=O)C4)CC3)CC2)CC1 (stereo not drawn) [Compound 436, 3-(5-(3-((4-((4-(4-amino-3-(4-phenoxyphenyl)-1H-pyrazolo[3,4-d]pyrimidin-1-yl)-[1,4′-bipiperidin]-1′-yl)methyl)piperidin-1-yl)methyl)azetidin-1-yl)-1-oxoisoindolin-2-yl)piperidine-2,6-dione] | < 0.01 | > 90 | < 1 | 1 to 10 | 
16 | Nc1ncnc2c1c(-c1ccc(Oc3ccccc3)cc1)nn2C1CCN(C2CCN(CC3CN(CC4CN(c5ccc6c(c5)C(=O)N(C5CCC(=O)NC5=O)C6=O)C4)C3)CC2)CC1 (stereo not drawn) [Compound 437] | 0.01 to 0.05 | > 90 | 1 to 10 | 1 to 10 | dose-dependent degradation
17 | Nc1ncnc2c1c(-c1ccc(Oc3ccccc3)cc1)nn2C1CCN(C2CCN(CC3CN(CC4CN(c5ccc6c(c5)CN(C5CCC(=O)NC5=O)C6=O)C4)C3)CC2)CC1 (stereo not drawn) [Compound 438, 3-(5-(3-((3-((4-(4-amino-3-(4-phenoxyphenyl)-1H-pyrazolo[3,4-d]pyrimidin-1-yl)-[1,4′-bipiperidin]-1′-yl)methyl)azetidin-1-yl)methyl)azetidin-1-yl)-1-oxoisoindolin-2-yl)piperidin-2,6-dione] | 0.01 to 0.05 | > 90 | 1 to 10 | 1 to 10 | 
